As usually defined, the EC50 is the concentration that produces a half-maximal response. By pKa is commonly meant the negative logarithm of the acid dissociation constant.

A short description of data set [1]: Water solubility. Type of data set: physicochemical. The note with it: simulated gastric fluid, thermodynamic from solid, 0.1 M HCl, pH 1.00, 25° C., read-out: Ws. Here is the method:
BA were suspended in 100 ml of 0.1 M HCl, pH 1.00, and the saturated solutions were transferred to a thermostat-equipped water bath maintained at 25° C. After incubation for 1 week, the solutions were filtered on a Millipore filter ([…]), and the concentration of BA was measured by HPLC-ESMS/MS as reported below.

Data set [2] has as its target T1, mouse glutathione transferase-tagged FXR-LBD (Mus musculus, UniProt Q60641).
T1 construct: mouse glutathione transferase-tagged FXR-LBD (generated in-house); made in house
T1 sequence (Q60641 264-488 limits assumed): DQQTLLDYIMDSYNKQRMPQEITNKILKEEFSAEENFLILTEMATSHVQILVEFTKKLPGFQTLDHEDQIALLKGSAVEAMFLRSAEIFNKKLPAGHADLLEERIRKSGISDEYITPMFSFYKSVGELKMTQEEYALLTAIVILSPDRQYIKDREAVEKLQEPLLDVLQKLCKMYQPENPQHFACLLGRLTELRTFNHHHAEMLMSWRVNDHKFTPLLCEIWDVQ
The experiment in a line: FXR AlphaScreen coactivator recruitment assay (mouse). The note with it: mouse FXR-LBD, value in parentheses; for EC50: read-out: (mFXR) EC50; for Emax: read-out: (mFXR) Efficacy. The data set is classed as biochemical. (In Alpha technology, singlet oxygen from a donor bead excites a nearby acceptor bead.)

Data set [3] deals with bovine serum albumin (Bos taurus, UniProt P02769). The experiment in a line: Albumin binding by equilibrium dialysis. The note with it: 5% bovine serum albumin saline solution, 25° C. The data set is classed as in vitro ADME. Here is the method:
BA was dissolved at a concentration of […] in 5% bovine serum albumin saline solution and left to stand for 24 hours at 25° C. Two milliliters of this solution was dialyzed in cellulose sacs with a molecular weight cut-off of 12-14 kDa (Spectra/Por; Spectrum Medical Industries Inc., Rancho Dominguez, Calif.) against 25 ml of saline solution. The system was equilibrated by mechanical shaking for 72 hours at 25° C. BA concentrations in the starting solution and in the dialyzed solution were determined by HPLC-ES-MS/MS as reported below.
Background: In equilibrium dialysis free small molecules cross a membrane that holds back macromolecules.

Data set [4] has as its target T2, TGR5 (Homo sapiens, UniProt Q8TDU6).
T2 sequence (Q8TDU6 1-330): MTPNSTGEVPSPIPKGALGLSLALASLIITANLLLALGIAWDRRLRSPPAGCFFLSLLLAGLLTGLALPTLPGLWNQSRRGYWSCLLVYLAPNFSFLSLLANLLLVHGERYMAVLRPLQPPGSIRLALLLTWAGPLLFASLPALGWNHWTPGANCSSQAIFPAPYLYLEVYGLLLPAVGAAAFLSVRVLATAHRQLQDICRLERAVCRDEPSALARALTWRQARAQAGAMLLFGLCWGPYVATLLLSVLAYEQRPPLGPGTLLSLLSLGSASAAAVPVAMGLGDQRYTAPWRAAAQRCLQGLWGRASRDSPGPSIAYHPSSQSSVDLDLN
In words: TGR5 activity: intracellular cAMP levels, NCI-H716 cells (HTR-FRET). Type of data set: cell-based. On the set-up: endogenous in cells; host or cells: NCI-H716. The note with it: NCI-H716 cells; for Emax: 1 h, Ref. LCA 100% at 10 μM, read-out: TGR5 (NCI-H716) Efficacy; for EC50: cAMP. Here is the method:
Activation of TGR5 was assessed by measuring the level of cAMP using an HTR-FRET assay. Thus, NCI-H716 cells were cultured on 96-well plates coated with Matrigel (Corning, USA) (0.75 mg/ml) in DMEM supplemented with 10% FCS, 100 units/ml penicillin, and 100 μg/ml streptomycin sulphate. […] The level of intracellular cAMP was determined with Lance kit. Z′ factor was used to validate assays.
In general terms: Cyclic AMP is a second messenger, typically raised through Gs and lowered through Gi signalling.

Data set [5] in a line: Critical micellar concentration (surface tension / dye solubilization). As to conditions: BA sodium salts in 0.1 M NaCl, 25° C. Type of data set: physicochemical. As for the experimental part: In the first method, the surface tension was performed by maximum bubble-pressure method using a Sensadyne 6000 tensiometer (Chem-Dyne Research Corp., Milwaukee, Wis.). The surface tension of aqueous solutions at various concentrations (range 0.1-100 mM) of the BA sodium salts in 0.1 M NaCl was measured at 25° C. The surface tension values were plotted against the logarithm of the bile salt concentration; the regression lines corresponding to the two parts of the curve (monomeric and micellar phases) were calculated using the method of least squares. The critical micellar concentration (CMC) value (mM) was obtained by the intersection of the two lines.
The second method is based on the fact that some dyes, specifically Orange OT ([…]), are almost insoluble in water but dissolve in solutions with micellar aggregates that incorporate them; thus, the intensity of color of the solution increases with bile salt concentration (after CMC achievement). The amount of dye solubilized in relation to bile salt concentration was determined spectrophotometrically.
For each bile acid, various solution at different concentrations, between 50 mM and 0.1 mM with appropriate dilutions, were incubated under stirring at room temperature for 3 days with an excess of Orange OT. Then all the solutions were centrifuged and filtered through a 0.22 μm Millipore fiiter (Millipore Corp., Bedford, Mass.).

The target in data set [6] is T3, human glutathione transferase-tagged FXR-LBD (Homo sapiens, UniProt Q96RI1).
T3 construct: human glutathione transferase-tagged FXR-LBD (Life Technologies, USA); purchased Life Technologies, USA
T3 sequence (Q96RI1 262-486 limits assumed): T1 sequence (Q60641 264-488 limits assumed) with D7H, Y8F, S46N, I50V, A95S, A98S, K107N, V125I, M174I, Y175H
The experiment in a line: FXR AlphaScreen coactivator recruitment assay (human).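 For hFXR Efficacy: CDCA at 50 µM taken as 100%.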 The data set is classed as biochemical. On the set-up: Emax: dose or concentration left out as unconfirmed. As to conditions: for EC50: human FXR-LBD, AlphaScreen, read-out: hFXR EC50; for Emax: read-out: hFXR Efficacy.

Data set [7] can be described thus: Lipophilicity, 1-octanol/water partition coefficient (shake-flask). The note with it: pH 8.00, ionized BA. Type of data set: physicochemical. Here is the method: The experiments were carried out on 1 mM initial bile salt solution buffered at pH 8.00 with 0.1 M potassium phosphate buffer to ensure complete ionization of the BA. BA concentration in the water phase before and after partition in 1-octanol was measured by HPLC-ESMS/MS as reported below.

Data set [8] is described as follows: pKa.
The target of data set [9] is T4, mTGR5 (Mus musculus, UniProt Q80SS6).
T4 construct: expressed in transfected cells; host or cells: CHO-Pi10 clone 4
T4 sequence (Q80SS6 1-329): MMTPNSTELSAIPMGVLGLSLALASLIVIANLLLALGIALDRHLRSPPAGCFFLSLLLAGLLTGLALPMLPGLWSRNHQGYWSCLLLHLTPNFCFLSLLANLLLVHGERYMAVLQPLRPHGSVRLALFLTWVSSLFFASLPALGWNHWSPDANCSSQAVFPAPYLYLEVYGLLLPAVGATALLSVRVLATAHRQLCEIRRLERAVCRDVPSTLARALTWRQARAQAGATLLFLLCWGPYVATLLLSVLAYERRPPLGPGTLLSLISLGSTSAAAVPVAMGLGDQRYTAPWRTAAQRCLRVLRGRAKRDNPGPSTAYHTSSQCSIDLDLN
The experiment in a line: TGR5 activity: cAMP in mTGR5 CHO-Pi10 clone 4 cells. The data set is classed as cell-based. The note with it: mTGR5 CHO cells, value in parentheses; for Emax: 0.5 h, read-out: (mTGR5 CHO) Efficacy.

In data set [10] the target is T2, TGR5. In words: TGR5 activity: cAMP in hTGR5 CHO-k1 cells. The data set is classed as cell-based. On the set-up: expressed in transfected cells; host or cells: CHO-k1. The note with it: hTGR5 CHO cells; for Emax: 0.5 h, Ref. LCA 100% at 10 μM, read-out: hTGR5 CHO Efficacy; for EC50: cAMP.
Data set [11] is described as follows: Critical micellar concentration (surface tension / dye solubilization). The data set is classed as physicochemical.

Numbering of substitutions follows the chain as printed. Converted amounts (≈) assume the structure as drawn.

Chain of bovine serum albumin (P02769 25-607): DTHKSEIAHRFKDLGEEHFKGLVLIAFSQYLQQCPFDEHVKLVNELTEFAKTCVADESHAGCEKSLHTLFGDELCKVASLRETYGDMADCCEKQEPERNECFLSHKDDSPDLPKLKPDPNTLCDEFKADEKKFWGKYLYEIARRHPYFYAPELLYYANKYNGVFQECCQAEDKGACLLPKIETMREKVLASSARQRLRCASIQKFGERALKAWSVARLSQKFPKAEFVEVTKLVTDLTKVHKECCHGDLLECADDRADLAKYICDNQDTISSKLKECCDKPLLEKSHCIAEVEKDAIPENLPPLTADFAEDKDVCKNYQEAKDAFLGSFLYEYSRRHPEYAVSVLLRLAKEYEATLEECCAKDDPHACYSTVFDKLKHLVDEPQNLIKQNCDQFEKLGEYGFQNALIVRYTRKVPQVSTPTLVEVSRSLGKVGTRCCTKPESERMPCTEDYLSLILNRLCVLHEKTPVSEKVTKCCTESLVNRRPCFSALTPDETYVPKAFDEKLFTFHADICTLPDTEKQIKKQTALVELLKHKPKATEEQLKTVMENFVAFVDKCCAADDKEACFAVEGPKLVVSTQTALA

As to `CC[C@H]1[C@@H](O)[C@@H]2[C@H](C[C@H](O)[C@]3(C)[C@@H]([C@H](C)C[C@H](F)C(=O)O)CC[C@@H]23)[C@@]2(C)CC[C@@H](O)C[C@@H]12` [Compound 8, 3α,7α,12α-Trihydroxy-6α-ethyl-23(S)-fluoro-5β-cholan-24-oate], the solubility thermodynamic at 1 week in data set [1] was 971 µM (≈ 441 µg/mL). In addition, the EC50 in [2] came to 59500 nM; in data set [4], 7000 ± 3000 nM; in data set [6], 5600 ± 1000 nM; in data set [9], 780 nM; in [10], 500 ± 100 nM. In addition, the Emax in [2] was found to be 47%; in data set [4], 97 ± 1.7%; in data set [6] it was 113 ± 3%; in [9], 100%; in [10], 103 ± 2%. Besides, the “Albumin binding (%)” value in [3] was determined as 84%. Also, in data set [5], the CMC came out at 6 mM. In [7], the “LogPA−” value is 0.01. Moreover, the pKa in data set [8] was determined as 2.82. In data set [11], this molecule had a CMpH of 3.6.
For the molecule `CC[C@H]1[C@@H](O)C2C3CC[C@H]([C@H](C)CC(F)(F)C(=O)O)[C@@]3(C)CCC2[C@@]2(C)CC[C@@H](O)C[C@@H]12` (stereo partly drawn) [Compound 10, 3α,7α-Dihydroxy-6α-ethyl-23,23-gemdifluoro-5β-cholan-24-oic acid], the solubility thermodynamic at 1 week in data set [1] was 16 µM (≈ 7.31 µg/mL). Moreover, the EC50 in data set [2] turned out to be 7100 nM; in [4], 1600 ± 200 nM; in [6] it was 200 ± 40 nM; in [9] it was 600 nM; in data set [10] it was 340 ± 40 nM. Further, the Emax in data set [2] worked out at 143%; in data set [4] it was 125 ± 1%; in data set [6] it was 128 ± 4%; in data set [9], 102%; in [10] it was 103 ± 1%. In addition, in data set [3], the “Albumin binding (%)” value was found to be 66%. Further, in data set [5], the CMC is listed as 8.5 mM. Besides, the “LogPA−” value in data set [7] was 1.4. The pKa in [8] came to 1.1. The CMpH in data set [11] was determined as 3.7.
On to `CC[C@H]1[C@@H](O)C2C3CC[C@H]([C@H](C)CCc4noc(=O)[nH]4)[C@@]3(C)[C@@H](O)CC2[C@@]2(C)CC[C@@H](O)C[C@@H]12` (stereo partly drawn) [Compound 11, 3α,7α,12α-trihydroxy-6α-ethyl-24-nor-5β-23([1,2,4]-oxadiazole-3-one-5yl)-cholane], for which, in data set [1], the solubility thermodynamic at 1 week was 392 µM (≈ 187 µg/mL). The EC50 in [2] amounted to 7700 nM; in data set [4] it was 2000 nM; in [6], 1000 nM; in data set [9] it was 1400 nM; in data set [10], 2700 ± 1800 nM. For the same molecule, the Emax amounted to 100% in data set [2]; 105% in data set [4]; 140% in [6]; 108% in [9]; 96 ± 19% in [10]. The “Albumin binding (%)” value in [3] was found to be 84%. Besides, the CMC in [5] is on record as 5 mM. Also, the “LogPA−” value in [7] was 1.6. Besides, in data set [8], the pKa was 5.94. The CMpH in data set [11] is reported as 7.0.
As for `CC[C@H]1[C@@H](O)C2C3CC[C@H]([C@H](C)CCc4nn[nH]n4)[C@@]3(C)[C@@H](O)CC2[C@@]2(C)CC[C@@H](O)C[C@@H]12` (stereo partly drawn) [Compound 12, 3α,7α,12α-Trihydroxy-6α-ethyl-23-(tetrazol-5-yl)-24-nor-5β-cholane], the solubility thermodynamic at 1 week in [1] was 517 µM (≈ 238 µg/mL). Further, the EC50 in data set [2] is 12700 nM; in data set [4], 4000 nM; in [6], 1700 ± 600 nM; in data set [9] it was 840 nM; in data set [10], 710 ± 80 nM. The Emax in [2] amounted to 93%; in [4], 104%; in data set [6], 125 ± 15%; in data set [9], 105%; in data set [10], 101 ± 1.4%. Besides, the “Albumin binding (%)” value in data set [3] is given as 83%. Further, the CMC in data set [5] came out at 5 mM. Besides, the “LogPA−” value in data set [7] is given as 1.5. This molecule also yielded a pKa in [8] of 5.59. For the same molecule, the CMpH in data set [11] was found to be 6.6.
In the case of `CC[C@H]1[C@@H](O)[C@@H]2[C@H](CC[C@]3(C)[C@@H]([C@H](C)CCc4nn[nH]n4)[C@@H](O)C[C@@H]23)[C@@]2(C)CC[C@@H](O)C[C@@H]12` [Compound 17, 3α,7α,16β-Trihydroxy-6α-ethyl-23-(tetrazol-5-yl)-24-nor-5β-cholane], in data set [1], the solubility thermodynamic at 1 week was 5 µM (≈ 2.3 µg/mL). Also, the EC50 in data set [2] was determined as 2300 nM; in [4], 1200 ± 100 nM; in data set [6], 450 ± 50 nM; in [9] it was 800 nM; in data set [10] it was 100 ± 40 nM. For the same molecule, the Emax in data set [2] came out at 171%; in data set [4], 119 ± 2%; in data set [6] it was 138 ± 9%; in data set [9], 101%; in [10], 103 ± 2%. Also, the “Albumin binding (%)” value in data set [3] was determined as 90%. The CMC in data set [5] came out at 11 mM. The “LogPA−” value in [7] was determined as 2.0. The pKa in [8] was 5.71. The same molecule registered a CMpH in data set [11] of 9.0.

The record behind these values is patent US10800807B2, “TGR5 modulators and methods of use thereof” (Intercept Pharmaceuticals, Inc., priority 2015, dated 2020).
